According to EP1222921B1, “Pharmaceutical compositions of tizoxanide and/or nitazoxanide” (Romark Laboratories, L.C., priority 1997, dated 1998):
Several values for one entry are separate records, joined by “and”; a condition that tells them apart may be missing. Equal entries are not always repeated.

Assays:
[1] = test system: Fasciola hepatica; experiment: In vitro culture of mature flukes
Experimental: The in vitro efficacy of nitazoxanide and desacetyl-nitazoxanide was tested against Fasciola hepatica. Mature F. hepatica were recovered from the bile ducts of 3 calf livers condemned due to fasciolosis at the Louisiana Veterinary Medical Diagnostic Laboratory at the Hardy's Meat […], Bunkie, LA. Flukes were washed in sterile saline for 1 hour and transferred to sterile saline or RPMI (pH 7.4) for an additional 3 hours. Flukes were then held in sterile RPMI-rabbit serum (50:50 v/v) or sterile RPMI (pH 7.4) overnight at 37°C with 5% CO2. In vitro culture (37°C, 5% CO2) was done according to a modification of the method of Ibarra and Jenkins ([…]. 70:655-661, 1984). […] Only flukes that had normal activity and morphology were used. […] Two control flukes were included in each replicate, […] and one in unmedicated culture media […]. Flukes were examined for the effects of drug treatment as evidenced by death, motility disturbances or morpholgic changes as compared to untreated control flukes, using a backlighted panel and a lighted 3X magnifying lens.

[2] = test system: C. parvum oocysts; experiment: Intact C. parvum oocyst assay (Example III), immunofluorescence; format: cell-based, Cryptosporidium parvum; conditions: for Parasite - Mean parasite count/field (12 fields analyzed) / %Inhib - Percent inhibitation of parasite infection: 48 hr.; for %Inhib - Percent inhibitation of parasite infection: listed as NTZ
Experimental: Each concentration of nitazoxanide and the media controls contained 0.025% DMSO as a constant. The experiment used a cell culture of MDBKF5D2 Cells grown in 7 mm chambers, and as Cryptosporidium parvum: GCH1 oocysts, 5 X 10^4 per well, and was conducted to compare paromomycin (positive control) against nitazoxanide (experimental drug). […] 5 x 104 C. parvum oocysts per well are incubated in the pre-mentioned concentrations of nitazoxanide at 37°C (8% CO2) on confluent MDBKF5D2 cell monolayers. The level of infection in each well was determined and computer analyzed by an immunofluorescence assay at 48 hours. […] (Medium control count - Drug test count)/(Medium control count)x 100 [formula] Conc. - µg/ml; Parasite - Mean parasite count/field (12 fields analyzed); %Inhib - Percent inhibitation of parasite infection; % Tox- Percent toxicity to cells by the drug.

[3] = test system: mycobacteria; experiment: MTS colorimetric assay of mycobacteria growing in a liquid broth; format: cell-based
Experimental: Fig. 7 is a chart based upon the assay for nitazoxanide effectiveness against mycobacteria growing in a liquid broth. We used the MTS colorimetric assay which permits us to determine growth in 4 hours rather than 3 weeks as with the agar counting method.

[4] = test system: MDBKF5D2 cell monolayers; experiment: Toxicity testing assay (Example III), MTS/PMS; format: cell-based; conditions: cattle, 48 h
Experimental: 200µl of medium containing nitazoxanide solution at the pre-mentioned concentrations and the proper controls were introduced into two wells of a 96 well plate containing confluent MDBKFD2 cell monolayers and two wells without monolayers. […] The plate was returned to the incubator in the dark to develop for 2 hours. At 2 hours, 100 µl of each supernatant was transferred to a new microtiter plate and read in the ELISA reader at 490 nm. Results were recorded and analyzed. […] (OD medium - OD drug x 100)/(OD medium) [formula] […]

[5] = test system: mature (13-week/old) Schistosoma hematobium; experiment: Experimentally infected mice, worm count; format: in vivo
Experimental: (§1) Nitazoxanide was tested against Schistosoma mansoni and Schistosoma hematobium in experimentally infected mice. Forty (40) white mice, weighing 30 to 50 grams were allocated to two treatment groups of 20 animal per group. The first group was infected with 300-500 Schistosoma mansoni free active cercariae suspended in 0.25 ml of distilled water and administered to each mouse by intraperitoneal injection. The second group was infected in the same manner but with Schistosoma hemotobium cercariae. These two groups were then kept for a total of 70 days in the laboratory. Seventy days after infection of the animals, ten mice from each group were treated with nitazoxanide as a 1.3 mg oral dose administered, morning and evening, for 7 consecutive days. Seven days after the end of treatment tall mice were sacrificed and the worms were extracted from the liver of each animal by perfusion using tepid water (37°C). The extracted schistosomes were counted for all treatment and control animals. The efficacy of nitazoxanide was calculated busing the formula indicated below: % efficacy(a - b)/(a)x 100 [formula] Where: • a = the number of schistosomes recovered from feces in the control animals • b = the number of schistosomes recovered from feces in the treated animals

[6] = test system: mature (13-week/old) Schistosoma mansoni; experiment: Experimentally infected mice, worm count; format: in vivo
Experimental: as §1

[7] = 10 mice, 2.6 mg/day for 7 consecutive days
[8] = individual mice No. 1-10, 1.3 mg oral morning and evening for 7 consecutive days, 70 days after infection
[9] = total of 10 mice, 2.6 mg/day for 7 consecutive days

Question: How did the “effects on flukes (death, motility disturbances)” value (from here on “effects on flukes”) ([1]; 1 µg treatment) turn out when `CC(=O)Oc1ccccc1C(=O)Nc1ncc([N+](=O)[O-])s1` [Nitazoxanide, 2-(acetolyloxy)-N-(5-nitro 2-thiazoly) benzamide] was run?
Answer: The value was “one fluke died by hour 16, three by hour 41 and five by hour 74; 3 flukes remained active at hour 91 and one fluke had activity at hour 115”.

Question: What about the “effects on flukes” value ([1]; 3 µg treatment) of the same compound?
Answer: Its value is “By 23 hours, only 2 sluggish flukes in the 3 µg group remained alive; these were dead by hour 41”.

Question: What about the “effects on flukes” value ([1]; 5 µg treatment) of the same compound?
Answer: Its value is “only 3 flukes were active at hour 6 and none were active at 16 hours”.

Question: What about the “effects on flukes” value ([1]; 10 µg treatment) of the same compound?
Answer: Its value is “only one fluke survived to 16 hours”.

Question: What about the “effects on flukes” value ([1]; 25 µg treatment) of the same compound?
Answer: Its value is “all flukes were dead or moribund except one fluke at 1 hour in the 25 µg group it was dead at 3 hour”.

Question: And the “effects on flukes” value ([1]; 50 µg treatment)?
Answer: Its value is “all flukes were dead or moribund”.

Question: And the “effects on flukes” value ([1]; 100 µg treatment)?
Answer: The value was “all flukes were dead or moribund”.

Question: What about the “Parasite - Mean parasite count/field (12 fields analyzed)” value (“Parasite - Mean parasite count/field” below) ([2]; Conc 0.01 µg/ml, 0.025% DMSO) of the same compound?
Answer: The value was 714.33.

Question: And the “Parasite - Mean parasite count/field” value ([2]; Conc 0.1 µg/ml, 0.025% DMSO)?
Answer: Its value is 643.42.

Question: What about the “Parasite - Mean parasite count/field” value ([2]; Conc 1 µg/ml, 0.025% DMSO) of the same compound?
Answer: The value was 39.67.

Question: And the “%Inhib - Percent inhibitation of parasite infection” value ([2]; Conc 1 µg/ml, 0.025% DMSO)?
Answer: Its value is 93.69%.

Question: What about the “Parasite - Mean parasite count/field” value ([2]; Conc 10 µg/ml, 0.025% DMSO) of the same compound?
Answer: The value was 11.75.

Question: What about the “%Inhib - Percent inhibitation of parasite infection” value ([2]; Conc 10 µg/ml, 0.025% DMSO) of the same compound?
Answer: The value was 98.13%.

Question: And the inhibition at 0.01 µg/mL ([2]; Cryptosporidium parvum, 48 h, Conc 0.01 µg/ml, 0.025% DMSO, read-out: %Inhib - Percent inhibitation of parasite infection)?
Answer: Its inhibition at 0.01 µg/mL is no more than 0%.

Question: What about the inhibition at 0.1 µg/mL ([2]; Cryptosporidium parvum, 48 h, Conc 0.1 µg/ml, 0.025% DMSO, read-out: %Inhib - Percent inhibitation of parasite infection) of the same compound?
Answer: Its inhibition at 0.1 µg/mL is no more than 0%.

Question: What about the inhibition at 1 µg/mL ([2]; Cryptosporidium parvum, 48 h, Conc 1 µg/ml, 0.025% DMSO, read-out: %Inhib - Percent inhibitation of parasite infection) of the same compound?
Answer: The inhibition at 1 µg/mL was 94%.

Question: And the inhibition at 10 µg/mL ([2]; Cryptosporidium parvum, 48 h, Conc 10 µg/ml, 0.025% DMSO, read-out: %Inhib - Percent inhibitation of parasite infection)?
Answer: The inhibition at 10 µg/mL was 98%.

Question: And the “lowest concentration giving more than 90% of inhibition” value ([2]; in vitro against Cryptosporidium parvum)?
Answer: The value was 1 µg/mL.

Question: And the “effect on continued growth” value ([3]; 3 µg/ml dose added at the 72 hr after culture was initiated)?
Answer: The value was “stops growth for the next 24 hrs and then there is a slow growth afterwards for the next 2 days”.

Question: And the “effect on continued growth” value ([3]; 50 µg/ml dose added at the 72 hr after culture was initiated)?
Answer: The value was “completely bacteriostatic throughout the 144 hours of the culture”.

Question: What about the “%Tox - Percent toxicity to cells by the drug” value (“%Tox - Percent toxicity” below) ([4]; 0.01 µg/ml) of the same compound?
Answer: The value was 10.12%.

Question: And the Tox/OD ([4]; 0.01 µg/ml)?
Answer: The Tox/OD was 1.617.

Question: And the “%Tox - Percent toxicity” value ([4]; 0.1 µg/ml)?
Answer: The value was no more than 0%.

Question: And the Tox/OD ([4]; 0.1 µg/ml)?
Answer: The Tox/OD was 1.878.

Question: What about the “%Tox - Percent toxicity” value ([4]; 1 µg/ml) of the same compound?
Answer: The value was 10.09%.

Question: And the Tox/OD ([4]; 1 µg/ml)?
Answer: Its Tox/OD is 1.618.

Question: What about the “%Tox - Percent toxicity” value ([4]; 10 µg/ml) of the same compound?
Answer: The value was 77.07%.

Question: And the Tox/OD ([4]; 10 µg/ml)?
Answer: Its Tox/OD is “.413”.

Question: And the “No. of flukes removed from liver of Treated Mice, Mean/Mouse” value [5, 7]?
Answer: Its value is 2.4.

Question: And the “No. of flukes removed from liver of Treated Mice” value [5, 8]?
Answer: The value was 2 (5×) and 0.0 and 3 (2×) and 4 (2×).

Question: What about the “No. of flukes removed from liver of Treated Mice, Total” value [5, 9] of the same compound?
Answer: Its value is 24.

Question: What about the “Efficacy (worm reduction)” value ([5]; versus control animals, 2.6 mg/day for 7 consecutive days) of the same compound?
Answer: The value was 82.85%.

Question: And the “No. of flukes removed from liver of Treated Mice, Mean/Mouse” value [6, 7]?
Answer: The value was 9.9.

Question: And the “No. of flukes removed from liver of Treated Mice” value [6, 8]?
Answer: The value was 12 and 8 and 7 and 10 (3×) and 9 (2×) and 11 and 13.

Question: And the “No. of flukes removed from liver of Treated Mice, Total” value [6, 9]?
Answer: The value was 99.

Question: And the “Efficacy (worm reduction)” value ([6]; versus control mice, 2.6 mg/day for 7 consecutive days)?
Answer: The value was 59.91%.
